For orientation: EC50 means the concentration needed to bring the measured effect to its halfway point.

Data on 30 molecules can be found in US11603373B2, “TDO2 and IDO1 inhibitors” (Genentech, Inc., priority 2017, dated 2023).

The target of experiment [1] is T1, TDO2 (SW48 cells, high TDO expressing cells) (Homo sapiens, UniProt P48775).
T1 construct: SW48 cells (high TDO expressing cells); endogenous in cells; host or cells: SW48 cells
Briefly: NFK GreenScreen cell assay, inhibition of TDO in SW48 cells. The format is cell-based. Particulars: read-out: TDO2 Cell Fluor EC50. The text has this:
(§1) Cells are counted on a Vi-Cell (Beckman Coulter). […] The final DMSO concentration is 0.5%.

Experiment [2] has as its target T2, IDO1 (A172+IFNg cells, high IDO expressing cells) (Homo sapiens, UniProt P14902).
T2 construct: A172+IFNg cells (high IDO expressing cells); endogenous in cells; host or cells: A172 cells induced with 100 ng/ml IFNγ
Put plainly: NFK GreenScreen cell assay, inhibition of IDO in A172+IFNg cells. The format is cell-based. As to conditions: read-out: IDO cell Fluor EC50.
Excerpt: as §1

T1 sequence (P48775 whole entry): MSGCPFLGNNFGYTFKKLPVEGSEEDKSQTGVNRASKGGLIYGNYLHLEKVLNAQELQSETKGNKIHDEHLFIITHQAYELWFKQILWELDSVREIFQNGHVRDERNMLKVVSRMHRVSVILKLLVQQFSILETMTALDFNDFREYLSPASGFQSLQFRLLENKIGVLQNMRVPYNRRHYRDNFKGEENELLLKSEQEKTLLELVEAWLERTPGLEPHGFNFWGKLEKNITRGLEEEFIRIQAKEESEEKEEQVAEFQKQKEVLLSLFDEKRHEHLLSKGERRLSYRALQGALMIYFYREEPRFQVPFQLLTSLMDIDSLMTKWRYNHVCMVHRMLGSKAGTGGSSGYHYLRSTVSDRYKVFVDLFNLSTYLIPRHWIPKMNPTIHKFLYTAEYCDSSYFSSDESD
T2 sequence (P14902 whole entry): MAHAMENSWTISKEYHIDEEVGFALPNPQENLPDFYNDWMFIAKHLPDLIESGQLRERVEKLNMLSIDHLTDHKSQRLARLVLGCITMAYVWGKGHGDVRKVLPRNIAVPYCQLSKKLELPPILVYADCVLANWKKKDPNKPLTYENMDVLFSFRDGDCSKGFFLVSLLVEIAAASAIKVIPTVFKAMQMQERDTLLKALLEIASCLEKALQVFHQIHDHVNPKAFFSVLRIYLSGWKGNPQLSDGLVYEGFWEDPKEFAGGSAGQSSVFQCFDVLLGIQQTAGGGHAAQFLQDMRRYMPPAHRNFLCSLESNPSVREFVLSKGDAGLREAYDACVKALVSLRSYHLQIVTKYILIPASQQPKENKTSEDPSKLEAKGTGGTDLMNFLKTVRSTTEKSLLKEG

As to `N#CCS(=O)(=O)N1CCC2(CC1)C[C@@H]([C@H]1c3ccccc3-c3cncn31)[C@H]2O` [Example 21b, (2S,3R)-2-[[3-hydroxy-2-((5S)-5H-imidazo[1,5-b]isoindol-5-yl)-7-azaspiro[3.5]nonan-7-yl]sulfonyl]acetonitrile], the 50% effective concentration (EC50) in experiment [1] turned out to be 100 nM; in experiment [2], 75 nM.

Regarding `CC(C)(C)OC(=O)N1CCC2(CC[C@@H]([C@H]3c4ccccc4-c4cncn43)[C@H]2O)CC1` (single isomer, unassigned) [Example 2c], the values for the concentration giving a half-maximal response (EC50) in experiment [1] and in experiment [2] were 107 nM and 51.5 nM, respectively.

With `O=S(=O)(CF)N1CCC2(CC1)C[C@H]([C@@H]1c3ccccc3-c3cncn31)[C@@H]2O` (single isomer, unassigned) [Example 8a], the concentration giving a half-maximal response (EC50) turned out to be 15000 nM in experiment [1] and 17000 nM in experiment [2].

Regarding `Cc1noc(C)c1S(=O)(=O)N1CCC2(CC1)C[C@@H]([C@H]1c3ccccc3-c3cncn31)[C@H]2O` [compound 31], the concentration giving a half-maximal response (EC50) came to 2200 nM in experiment [1] and 150 nM in experiment [2].

Regarding `CC(C)(C)OC(=O)N1CCC2(CC[C@@H]([C@@H]3c4ccccc4-c4cncn43)[C@@H]2O)CC1` (single isomer, unassigned) [Example 2a], the EC50 was determined as 15000 nM in experiment [1] and 6600 nM in experiment [2].

For `CN(C)C(=O)CCC(=O)N1CCC2(CC1)CC(C1c3ccccc3-c3cncn31)C2O` (stereo not drawn) [compound 50, 4-[3-hydroxy-2-(5H-imidazo[1,5-b]isoindol-5-yl)-7-azaspiro[3.5]nonan-7-yl]-N,N-dimethyl-4-oxo-butanamide], the EC50 in experiment [1] worked out at 1300 nM; in experiment [2], 1500 nM.

As for `COCCOC(=O)N1CCC2(CC[C@@H]([C@H]3c4ccccc4-c4cncn43)[C@H]2O)CC1` (single isomer, unassigned) [Example 19], the EC50 in experiment [1] is 94 nM; in experiment [2] it was 99 nM.

Turning to `O=C([C@H]1CC1(F)F)N1CCC2(CC[C@@H]([C@H]3c4ccccc4-c4cncn43)[C@H]2O)CC1` (single isomer, unassigned) [Example 25b], the values for the concentration for a half-maximal effect (EC50) in experiment [1] and in experiment [2] were 150 nM and 160 nM, respectively.

As to `O=C(C1CCOCC1)N1CCC2(CC1)C[C@@H]([C@H]1c3ccccc3-c3cncn31)[C@H]2O` [compound 45, [3-hydroxy-2-(5H-imidazo[1,5-b]isoindol-5-yl)-7-azaspiro[3.5]nonan-7-yl]-tetrahydropyran-4-yl-methanone], the EC50 in experiment [1] was found to be 2100 nM; in experiment [2] it was 2400 nM.

In the case of `CC(C)(C)OC(=O)N1[C@@H]2CC[C@H]1C[C@@]1(C[C@@H]([C@H]3c4ccccc4-c4cncn43)[C@H]1O)C2` (single isomer, unassigned) [Example 12b], the 50% effective concentration (EC50) in experiment [1] amounted to 21000 nM; in experiment [2], 8100 nM.

`CC(C)(C)OC(=O)N1CC2(CC[C@H]([C@@H]3c4ccccc4-c4cncn43)[C@H]2O)C1` (single isomer, unassigned) [Example 3f]: the results for the concentration for a half-maximal effect (EC50) in experiment [1] and in experiment [2] were 130 nM and 170 nM, respectively.

On to `CC(C)(C)OC(=O)N1CC2(CC[C@H]([C@@H]3c4ccccc4-c4cncn43)[C@@H]2O)C1` (single isomer, unassigned) [Example 3b], for which the concentration giving a half-maximal response (EC50) came to 72 nM in experiment [1] and 1100 nM in experiment [2].

Consider `CS(=O)(=O)N1CCC2(CC[C@@H]([C@@H]3c4ccccc4-c4cncn43)[C@@H]2O)CC1` (single isomer, unassigned) [Example 7a], for which the EC50 came out at 370 nM in experiment [1] and 3900 nM in experiment [2].

On to `CC(=O)N1CCC2(CC1)C[C@@H]([C@H]1c3ccccc3-c3cncn31)[C@H]2O` [compound 56, 1-[3-hydroxy-2-(5H-imidazo[1,5-b]isoindol-5-yl)-7-azaspiro[3.5]nonan-7-yl]ethanone], for which the concentration for a half-maximal effect (EC50) in experiment [1] worked out at 790 nM; in experiment [2] it was 660 nM.

Turning to `CC(C)(C)OC(=O)N1[C@@H]2CC[C@H]1C[C@@]1(C[C@H]([C@H]3c4ccccc4-c4cncn43)[C@@H]1O)C2` (single isomer, unassigned) [Example 12k], the EC50 in experiment [1] was found to be 15000 nM; in experiment [2] it was 13000 nM.

In the case of `COC(=O)N1CCC2(CC[C@H]([C@@H]3c4ccccc4-c4cncn43)[C@@H]2O)CC1` (single isomer, unassigned) [Example 9b], the EC50 is 100 nM in experiment [1] and 130 nM in experiment [2].

`CN1C(=O)Cc2cc(S(=O)(=O)N3CCC4(CC3)CC(C3c5ccccc5-c5cncn53)C4O)ccc21` (stereo not drawn) [compound 37, 5-[[3-hydroxy-2-(5H-imidazo[1,5-b]isoindol-5-yl)-7-azaspiro[3.5]nonan-7-yl]sulfonyl]-1-methyl-indolin-2-one]: the EC50 in experiment [1] was 1100 nM; in experiment [2], 230 nM.

`CS(=O)(=O)N1CCC2(CC1)C[C@@H]([C@@H]1c3ccccc3-c3cncn31)[C@H]2O` (single isomer, unassigned) [Example 6e]: the half-maximal effective concentration (EC50) in experiment [1] amounted to 6800 nM; in experiment [2], 3200 nM.

Take `O=C(NCC(F)F)N1CCC2(CC1)C[C@@H]([C@H]1c3ccccc3-c3cncn31)[C@H]2O` [compound 58, N-(2,2-difluoroethyl)-3-hydroxy-2-(5H-imidazo[1,5-b]isoindol-5-yl)-7-azaspiro[3.5]nonane-7-carboxamide]: the results for the concentration for a half-maximal effect (EC50) in experiment [1] and in experiment [2] were 340 nM and 350 nM, respectively.

On to `CC(C)(C)OC(=O)N[C@H]1CC[C@@]2(CC1)C[C@@H]([C@H]1c3ccccc3-c3cncn31)[C@H]2O` (single isomer, unassigned) [Example 24l], for which the EC50 is 8600 nM in experiment [1] and 1900 nM in experiment [2].

For the molecule `CCC(=O)N1CCC2(CC1)CC(C1c3ccccc3-c3cncn31)C2O` (stereo not drawn) [compound 49, 1-[3-hydroxy-2-(5H-imidazo[1,5-b]isoindol-5-yl)-7-azaspiro[3.5]nonan-7-yl]propan-1-one], the EC50 in experiment [1] turned out to be 530 nM; in experiment [2], 560 nM.

On to `O=C(C1CCS(=O)(=O)C1)N1CCC2(CC1)C[C@@H]([C@H]1c3ccccc3-c3cncn31)[C@H]2O` (stereo partly drawn) [compound 65, (1,1-dioxothiolan-3-yl)-[3-hydroxy-2-(5H-imidazo[1,5-b]isoindol-5-yl)-7-azaspiro[3.5]nonan-7-yl]methanone], for which the figures for the EC50 in experiment [1] and in experiment [2] were 9000 nM and 6300 nM, respectively.

Consider `O=S1(=O)CCC2(CC[C@@H]([C@H]3c4ccccc4-c4cncn43)[C@H]2O)CC1` (relative stereo) [Example 13a, (1R,2S)-1-hydroxy-2-((S)-5H-imidazo[5,1-a]isoindol-5-yl)-8-thiaspiro[4.5]decane 8,8-dioxide], for which the figures for the EC50 in experiment [1] and in experiment [2] were 160 nM and 290 nM, respectively.

With `CC(C)(C)OC(=O)N1[C@@H]2CC[C@H]1C[C@]1(C[C@H]([C@H]3c4ccccc4-c4cncn43)[C@@H]1O)C2` (single isomer, unassigned) [Example 12c], the figures for the EC50 in experiment [1] and in experiment [2] were 520 nM and 1900 nM, respectively.

With `CC(C)(C)OC(=O)N1CC2CCC(C1)C21C[C@H]([C@H]2c3ccccc3-c3cncn32)[C@H]1O` (stereo partly drawn) [Example 22f, tert-butyl (2′R,3′R)-2′-hydroxy-3′-((S)-5H-imidazo[5,1-a]isoindol-5-yl)-3-azaspiro[bicyclo[3.2.1]octane-8,1′-cyclobutane]-3-carboxylate], the EC50 in experiment [1] was 1400 nM; in experiment [2], 92 nM.

Regarding `CC(C)(C)OC(=O)N[C@H]1CC[C@]2(CC1)C[C@H]([C@@H]1c3ccccc3-c3cncn31)[C@H]2O` (single isomer, unassigned) [Example 24c], the results for the EC50 in experiment [1] and in experiment [2] were 730 nM and 5200 nM, respectively.

As for `CC(C)(C)OC(=O)N[C@H]1CC[C@]2(CC1)C[C@H]([C@H]1c3ccccc3-c3cncn31)[C@@H]2O` [Example 24g, tert-butyl ((1S,2R,4r,7S)-1-hydroxy-2-((S)-5H-imidazo[5,1-a]isoindol-5-yl)spiro[3.5]nonan-7-yl)carbamate], the half-maximal effective concentration (EC50) is 1100 nM in experiment [1] and 1800 nM in experiment [2].

For the molecule `O=S(=O)(C1COC1)N1CCC2(CC1)C[C@H](C1c3ccccc3-c3cncn31)[C@@H]2O` (stereo in doubt) [Example 23b, (2R,3S)-2-((5S)5H-imidazo[1,5-b]isoindol-5-yl)-7-(oxetan-3-ylsulfonyl)-7-azaspiro[3.5]nonan-3-ol], the concentration giving a half-maximal response (EC50) in experiment [1] came to 3200 nM; in experiment [2], 2500 nM.

`CN1CCC(C(=O)N2CCC3(CC2)CC(C2c4ccccc4-c4cncn42)C3O)CC1=O` (stereo not drawn) [compound 40, 4-[3-hydroxy-2-(5H-imidazo[1,5-b]isoindol-5-yl)-7-azaspiro[3.5]nonane-7-carbonyl]-1-methyl-piperidin-2-one]: the concentration for a half-maximal effect (EC50) was found to be 9200 nM in experiment [1] and 7000 nM in experiment [2].

Regarding `O=C(CN1CCCCC1=O)N1CCC2(CC1)CC(C1c3ccccc3-c3cncn31)C2O` (stereo not drawn) [compound 39, 1-[2-[3-hydroxy-2-(5H-imidazo[1,5-b]isoindol-5-yl)-7-azaspiro[3.5]nonan-7-yl]-2-oxo-ethyl]piperidin-2-one], the concentration giving a half-maximal response (EC50) in experiment [1] is 3900 nM; in experiment [2], 3300 nM.
